# Experimental data: patent publication US20240368133A1, “Compounds for the Treatment of Pain, in Particular, Neuropathic Pain, and/or Other Diseases or Disorders that are Associated with AT2R and/or AT2R Mediated Signaling” (Confo Therapeutics N.V., priority 2021, published 2024)
# Assay: Metabolic stability in hepatocytes, rat
# Format: in vitro ADME
# Details: hepatocytes (cryopreserved), read-out: Rat Clint (μL/min/10^6 cells)
# Experimental: The aim of this assay is to determine the metabolic stability of the compound in hepatocytes (cryopreserved) of different species (mouse CD1, rat Sprague Dawley, dog Beagle). Low hepatocyte stability may result in the formation of unwanted metabolites, high clearance, and therefore is not desirable. The decrease in parent was assessed by measuring the percentage remaining by LC-MS/MS analysis. The batches of hepatocytes were tested for quality control using Testosterone, Umbelliferone and Caffeine as reference compounds.
# A 10 mM stock solution of test compound in DMSO was first diluted in DMSO to 3 mM, and then in modified Krebs-Henseleit buffer (Sigma, K3753) to 5 μM. This compound dilution was added to a suspension of pooled cryopreserved hepatocytes (BioIVT) at 37° C. under gentle shaking. Final reaction conditions were: 1 μM of test compound, <0.1% DMSO, 0.5 million viable hepatocytes/mL, and 75 μL incubation volume.
# After 0, 10, 20, 45, 90, 120 and 180 min of incubation, the reaction was terminated with 3 volumes of MeCN:MeOH (2:1) containing diclofenac as analytical internal standard. Samples were mixed, centrifuged and the supernatant analyzed by LC-MS/MS (systems API4000). The instrument responses (ratios of test compound and internal standard peak areas) were referenced to the zero time point samples (considered as 100%) in order to determine the percentage of compound remaining. Plots of percentage compound remaining were used to determine the intrinsic clearance in the hepatocyte incubations.
# Testosterone (1 μM) and Umbelliferone (1 μM) and Caffeine (1 μM) were used as reference compounds, being unstable and stable compounds respectively. If the hepatocyte stability values for these controls are not in the range determined by the historical data, the assay is not validated.
row,Compound,hepatocyte CLint
1,"CC(C)Cc1cc(F)c(-c2nn[nH]n2)c(N2CCN(Cc3cccnn3)C(C)C2)c1 (stereo not shown) [Compound A-173, 3-[[4-[3-fluoro-5-isobutyl-2-(2H-tetrazol-5-yl)phenyl]-2-methyl-piperazin-1-yl]methyl]pyridazine]",2 µL/min/1e6 cells
2,"CC(C)Cc1cc(F)c(-c2nn[nH]n2)c(N2CCN(Cc3cccnn3)[C@@H](C)C2)c1 [Compound A-174, 3-[[(2S)-4-[3-fluoro-5-isobutyl-2-(2H-tetrazol-5-yl)phenyl]-2-methyl-piperazin-1-yl]methyl]pyridazine]",10.5 µL/min/1e6 cells
3,"CCC1CN(c2cc(CC(C)C)cc(F)c2-c2nn[nH]n2)CCN1Cc1cccnn1 (stereo not shown) [Compound A-178, 3-[[2-ethyl-4-[3-fluoro-5-isobutyl-2-(2H-tetrazol-5-yl)phenyl]piperazin-1-yl]methyl]pyridazine]",0.2 µL/min/1e6 cells
4,"CCC1CN(Cc2cccnn2)CCN1c1cc(CC(C)C)cc(F)c1-c1nn[nH]n1 (stereo not shown) [Compound A-181, 3-[[3-ethyl-4-[3-fluoro-5-isobutyl-2-(2H-tetrazol-5-yl)phenyl]piperazin-1-yl]methyl]pyridazine]",1 µL/min/1e6 cells
5,"CC(C)Cc1cc(F)c(-c2nn[nH]n2)c(N2CC(C)N(Cc3cccnn3)CC2C)c1 (stereo not shown) [Compound A-183, 3-[[4-[3-fluoro-5-isobutyl-2-(2H-tetrazol-5-yl)phen-yl]-2,5-dimethyl-piperazin-1-yl]-methyl]pyridazine]",2.6 µL/min/1e6 cells
6,"CC(C)Cc1cc(F)c(-c2nn[nH]n2)c(N2CCN(Cc3ccccn3)[C@@H](C)C2)c1 [Compound A-217, (2S)-4-[3-fluoro-5-isobutyl-2-(2H-tetrazol-5-yl)phenyl]-2-methyl-1-(2-pyridylmethyl)piperazine]",8.7 µL/min/1e6 cells

# Assay: PAMPA (Parallel Artificial Membrane Permeability Assay), GIT model
# Format: in vitro ADME
# Details: not given
# Excerpt: The Parallel Artificial Membrane Permeability Assay (PAMPA) is used as an in vitro model of passive, transcellular permeation. PAMPA eliminates the added complexities of active transport, allowing ranking compounds just based on a simple membrane permeability property. This simple assay also allows evaluation of permeability over a large pH range, which is valuable for a preliminary understanding of how orally delivered compounds might be absorbed across the entire gastrointestinal tract. Depending upon the types of lipids used and other experimental conditions, PAMPA may be designed to model absorption in gastrointestinal tract (PAMPA-GIT), blood-brain barrier penetration (PAMPA-BBB) or skin penetration (Skin PAMPA).
# All steps of the PAMPA were carried out according to pION Inc. PAMPA Explorer™ Manual. The main principle of the assay is the incubation of compound in donor chamber (a well in Donor Plate) with aqueous buffer, which is separated from acceptor chamber (a well in Acceptor Plate) with another buffer by a phospholipid or hydrocarbon membrane fixed on a filter support. After the test, concentrations in the corresponding donor and acceptor wells are measured and permeability is calculated.
# GIT model was simulated using GIT-0 phospholipid mix. Verapamil and quinidine (high permeability) and ranitidine (low permeability) were used as reference compounds. All compounds were tested in triplicates.
# Solutions of the test and reference compounds were added into the Donor Plate wells in Prisma HT buffer (pH 7.4). Acceptor Sink Buffer was added into each well of the Acceptor Plate. Incubation was done at room temperature for 4 hours without stirring. After incubation, aliquots from both plates were transferred to optic UV-Vis plates and optic plates were read on microplate reader in absorbance mode in the range of 202-500 nm with 4 nm step. Compounds with low UV-Vis signal were detected by LC-MS/MS method (API 3000 (PE Sciex)). Both the positive and negative ion modes of the TurboIonSpray ion source were used. Acquisition and analysis of the data were performed using Analyst 1.5.2 software (PE Sciex). The apparent permeability coefficient was calculated according to the equation shown below:
# with: • VD=volume of transport buffer in donor compartment • A=surface area of the lipids in the insert (effective growth area of the insert—0.3 sq.cm) • t=time of the assay, seconds • Cdon=final concentration of test compound in the donor compartment • Cref=starting concentration of test compound in the donor compartment • εa=apparent filter porosity, equals to 0.76
# [formula] • Cacc=final concentration of test compound in the […] compartment • τss=steady state lag time, estimated as (54RM+1)×60 s
# Values of Cdon/Cref and Cacc/Cref are practically calculated using optical absorbance data. Mass retention by the lipid membrane is a normal condition in PAMPA assays for hydrophobic compounds but high levels of the mass retention makes compounds more permeable in vivo than it could be predicted from PAMPA assay. Mass retention was calculated as follows:
# • [drug]acc=final OD of test compound in acceptor well • [drug]d=starting OD of test compound in a donor well • [drug]fd=final OD of test compound in a donor well
Compound,Mass retention (%),"Permeability Papp, Log10 (10^−6 cm/s)"
"CCCCOC(=O)NS(=O)(=O)c1ccc(C(F)(F)F)cc1N1CCN(Cc2nc3ccccc3n2C)CC1 [Compound A-09, butyl N-[2-[4-[(1-methylbenzimidazol-2-yl)methyl]piperazin-1-yl]-4-(trifluoromethyl)phenyl]sulfonylcarbamate]",10%,<−7 Log10 (10^−6 cm/s)
"CCCCNC(=O)NS(=O)(=O)c1ccc(C(F)(F)F)cc1N1CCN(Cc2nc3ccccc3n2C)CC1 [Compound A-10, 1-butyl-3-[2-[4-[(1-methylbenzimidazol-2-yl)methyl]piperazin-1-yl]-4-(trifluoromethyl)phenyl]sulfonyl-urea]",8%,<−7 Log10 (10^−6 cm/s)
"CCCCNC(=O)NS(=O)(=O)c1ccc(C)cc1N1CCN(Cc2nc3ccccc3n2C)CC1 [Compound A-12, 1-butyl-3-[4-methyl-2-[4-[(1-methylbenzimidazol-2-yl)methyl]piperazin-1-yl]phenyl]sulfonyl-urea]",7%,<−7 Log10 (10^−6 cm/s)
"CC(C)Cc1ccc(-c2nn[nH]n2)c(N2CCN(Cc3nc4ccccc4n3C)CC2)c1 [Compound A-20, 2-[[4-[5-isobutyl-2-(2H-tetrazol-5-yl)-phenyl]piperazin-1-yl]methyl]-1-meth-yl-benzimidazole]",28%,<−7 Log10 (10^−6 cm/s)
"CC(C)Oc1ccc(-c2nn[nH]n2)c(N2CCN(Cc3nc4ccccc4n3C)CC2)c1 [Compound A-24, 2-[[4-[5-isopropoxy-2-(2H-tetrazol-5-yl)phenyl]piperazin-1-yl]methyl]-1-methyl-benzimidazole]",24%,<−7 Log10 (10^−6 cm/s)
CC(C)Oc1ccc(-c2nn[nH]n2)c(N2CCN(Cc3nc4ccccc4c(=O)[nH]3)CC2)c1 [Compound A-32],20%,−4.6 Log10 (10^−6 cm/s)
"CC(C)Oc1ccc(-c2nn[nH]n2)c(N2CCN(Cc3nc4ccccc4s3)CC2)c1 [Compound A-51, 2-[[4-[5-isoprop-oxy-2-(2H-tetrazol-5-yl)phenyl]piper-azin-1-yl]methyl]-1,3-benzothiazole]",14%,−4.2 Log10 (10^−6 cm/s)
"CC(C)Cc1cc(F)c(-c2nn[nH]n2)c(N2CCN(Cc3cccnn3)[C@@H](C)C2)c1 [Compound A-174, 3-[[(2S)-4-[3-fluoro-5-isobutyl-2-(2H-tetrazol-5-yl)phenyl]-2-methyl-piperazin-1-yl]methyl]pyridazine]",0%,−5.5 Log10 (10^−6 cm/s)
